From patent US7932420B2, “Sulfonamides” (Allergan, Inc., priority 2005, dated 2011)

Tests used:
[1] = biological target: hEP4 (Homo sapiens, UniProt P35408); test: in-vitro binding to prostaglandin receptor (bhEP4); details: human EP4
[2] = biological target: T1, hEP2 (Homo sapiens, UniProt P43116); test: in-vitro activity at prostaglandin receptor (fhEP2); format: cell-based; details: functional, human EP2
[3] = biological target: T1, hEP2; test: in-vitro binding to prostaglandin receptor (bhEP2); details: human EP2
[4] = tested on: EP2 and EP4 receptors as compared to the FP, EP1, TP, IP and DP receptors; test: in-vitro assay for binding to and activity at prostaglandin receptors (selectivity)

T1 sequence (P43116 whole entry): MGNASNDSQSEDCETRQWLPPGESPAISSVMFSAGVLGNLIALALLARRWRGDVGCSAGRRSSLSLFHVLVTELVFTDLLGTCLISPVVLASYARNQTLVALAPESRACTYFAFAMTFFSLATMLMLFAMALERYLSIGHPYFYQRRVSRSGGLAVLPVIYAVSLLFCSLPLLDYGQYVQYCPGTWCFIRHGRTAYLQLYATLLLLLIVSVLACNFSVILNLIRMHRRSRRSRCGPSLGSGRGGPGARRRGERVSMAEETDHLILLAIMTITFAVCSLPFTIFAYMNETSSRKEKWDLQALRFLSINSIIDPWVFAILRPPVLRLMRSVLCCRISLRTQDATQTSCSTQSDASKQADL
Sequence of hEP4 (P35408 whole entry): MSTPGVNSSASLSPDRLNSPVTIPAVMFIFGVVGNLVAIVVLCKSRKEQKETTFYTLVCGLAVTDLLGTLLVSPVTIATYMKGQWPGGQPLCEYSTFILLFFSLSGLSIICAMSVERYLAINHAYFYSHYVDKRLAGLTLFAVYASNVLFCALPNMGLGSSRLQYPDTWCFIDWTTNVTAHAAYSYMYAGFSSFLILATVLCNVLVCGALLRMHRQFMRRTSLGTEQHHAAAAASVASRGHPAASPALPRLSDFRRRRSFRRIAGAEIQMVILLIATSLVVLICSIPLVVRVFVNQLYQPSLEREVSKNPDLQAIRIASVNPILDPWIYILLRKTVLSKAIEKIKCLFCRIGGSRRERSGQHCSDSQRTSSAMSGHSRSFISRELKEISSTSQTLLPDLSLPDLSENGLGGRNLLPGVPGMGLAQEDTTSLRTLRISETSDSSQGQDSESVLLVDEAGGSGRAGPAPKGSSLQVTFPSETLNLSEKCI

bhEP4 [1]: 50K
fhEP2 [2]: 248
bhEP2 [3]: 5560
selectivity among prostaglandin receptors [4]: selective at the EP2 and EP4 receptors
Structure (SMILES): CCCC1(C(O)C/C=C/CN(CCCCCCC(=O)O)S(C)(=O)=O)CCC1 (stereo not shown) [Example 10, 7-[[5-Hydroxy-5-(1-propylcyclobutyl)pent-2-enyl]methanesulfonylamino]heptanoic acid]
